A short description of data set [1]: Glucose levels in ob/ob mice after 14 days of oral dose at 30 mpk b.i.d. To be noted: mouse, in vivo, 30 mg/kg, 336 h. Format: ADME.
Data set [2] in a line: Triglyceride levels in ob/ob mice after 30 days of oral dose at 100 mpk b.i.d. It counts as ADME. To be noted: mouse, in vivo, 100 mg/kg, 720 h.
Data set [3] in a line: Cholesterol levels in ob/ob mice after 14 days of oral dose at 30 mpk b.i.d. Format: ADME. As to conditions: mouse, in vivo, 30 mg/kg, 336 h.
The nature of data set [4]: Free fatty acid (FFA) levels in ob/ob mice after 30 days of oral dose at 30 mpk b.i.d. It counts as ADME. To be noted: mouse, in vivo, 30 mg/kg, 720 h.
Data set [5] is described as follows: Cholesterol levels in ob/ob mice after 14 days of oral dose at 100 mpk b.i.d. It counts as ADME. As to conditions: mouse, in vivo, 100 mg/kg, 336 h.
Data set [6] can be described thus: Insulin levels in ob/ob mice after 14 days of oral dose at 100 mpk b.i.d. Format: ADME. To be noted: mouse, in vivo, 100 mg/kg, 336 h.
Data set [7] in a line: Liver TAT levels in ob/ob mice after 14 days of oral dose at 30 mpk b.i.d. It counts as ADME, tissue-based. As to conditions: mouse, in vivo, 30 mg/kg, 336 h.
The species named for data set [8] is Mus musculus. Put plainly: Final weight of the ob/ob mice after 14 days of oral treatment at 30 mpk b.i.d. It counts as functional.
Data set [9] can be described thus: Insulin levels in ob/ob mice after 14 days of oral dose at 30 mpk b.i.d. Format: ADME. To be noted: mouse, in vivo, 30 mg/kg, 336 h.
Data set [10] is described as follows: HbA1c levels in ob/ob mice after 30 days of oral dose at 100 mpk b.i.d. To be noted: mouse, in vivo, 100 mg/kg, 720 h.
The nature of data set [11]: Plasma protein binding of tritium labeled compound in rat plasma was determined. To be noted: read-out: Protein binding. Format: ADME, cell-free.
A short description of data set [12]: Glucose levels in ob/ob mice after 14 days of oral dose at 100 mpk b.i.d. As to conditions: mouse, in vivo, 100 mg/kg, 336 h. Format: ADME.
Data set [13] is described as follows: Area under the concentration-time curve in SD rats after 5 mg/kg oral dose. Format: ADME, organism-based. Further details: dose 5 mg/kg, route oral. As to conditions: rat, in vivo.
For data set [14], the species on record is Mus musculus. Put plainly: Final weight of the ob/ob mice after 14 days of oral treatment at 100 mpk b.i.d. It counts as functional.
A short description of data set [15]: Liver TAT levels in ob/ob mice after 14 days of oral dose at 100 mpk b.i.d. To be noted: mouse, in vivo, 100 mg/kg, 336 h. It counts as ADME, tissue-based.
A short description of data set [16]: HbA1c levels in ob/ob mice after 30 days of oral dose at 30 mpk b.i.d. It counts as ADME. To be noted: mouse, in vivo, 30 mg/kg, 720 h.
Data set [17] can be described thus: Oral bioavailability in SD rats after 5 mg/kg oral dose. To be noted: Sprague-Dawley, rat, in vivo. It counts as ADME, organism-based.
A short description of data set [18]: Plasma protein binding of tritium labeled compound in human plasma was determined. Format: ADME, cell-free. To be noted: read-out: Protein binding.
A short description of data set [19]: Free fatty acid (FFA) levels in ob/ob mice after 14 days of oral dose at 100 mpk b.i.d. It counts as ADME. As to conditions: mouse, in vivo, 100 mg/kg, 336 h.
Data set [20] in a line: Glycogen levels in ob/ob mice after 14 days of oral dose at 30 mpk b.i.d. As to conditions: mouse, in vivo, 30 mg/kg, 336 h. It counts as ADME.
Data set [21] in a line: Compound level in liver in ob/ob mice after 13 days of […] mpk oral dose of compound. It counts as ADME, tissue-based. To be noted: mouse, 30 mg/kg, read-out: Level.
Data set [22] in a line: Aspartate aminotransferase /alanine aminotransferase levels in ob/ob mice after 30 days of oral dose at 30 mpk b.i.d. It counts as ADME. To be noted: mouse, in vivo, 30 mg/kg, 720 h.
Data set [23] is described as follows: Free fatty acid (FFA) levels in ob/ob mice after 30 days of oral dose at 100 mpk b.i.d. Format: ADME. As to conditions: mouse, in vivo, 100 mg/kg, 720 h.
Data set [24] in a line: Cholesterol levels in ob/ob mice after 30 days of oral dose at 100 mpk b.i.d. As to conditions: mouse, in vivo, 100 mg/kg, 720 h. It counts as ADME.
Data set [25] is described as follows: Free fatty acid (FFA) levels in ob/ob mice after 14 days of oral dose at 30 mpk b.i.d. As to conditions: mouse, in vivo, 30 mg/kg, 336 h. It counts as ADME.
A short description of data set [26]: Cholesterol levels in ob/ob mice after 30 days of oral dose at 30 mpk b.i.d. Format: ADME. To be noted: mouse, in vivo, 30 mg/kg, 720 h.
Data set [27] is described as follows: Aspartate aminotransferase /alanine aminotransferase levels in ob/ob mice after 30 days of oral dose at 100 mpk b.i.d. It counts as ADME. To be noted: mouse, in vivo, 100 mg/kg, 720 h.
Data set [28] can be described thus: Triglyceride levels in ob/ob mice after 30 days of oral dose at 30 mpk b.i.d. It counts as ADME. To be noted: mouse, in vivo, 30 mg/kg, 720 h.
The nature of data set [29]: Plasma protein binding of tritium labeled compound in mouse plasma was determined. It counts as ADME, cell-free. As to conditions: read-out: Protein binding (converted).
For data set [30], the species on record is Mus musculus. Put plainly: Initial weight of the ob/ob mice before oral treatment at 100 mpk b.i.d. for 14 days. It counts as functional.
The nature of data set [31]: Glycogen levels in ob/ob mice after 14 days of oral dose at 100 mpk b.i.d. As to conditions: mouse, in vivo, 100 mg/kg, 336 h. Format: ADME.
Data set [32] is filed under the species Mus musculus. The data set is described as follows: Initial weight of the ob/ob mice before oral treatment at 100 mpk b.i.d. for 13 days. It counts as functional.
A short description of data set [33]: Compound level in plasma in ob/ob mice after 13 days of 100 mpk oral dose of compound. It counts as ADME. As to conditions: mouse, 100 mg/kg, read-out: Level.
Data set [34] is described as follows: Free levels in ob/ob mice after 13 days of oral dose at 100 mpk b.i.d. Format: ADME. To be noted: mouse, in vivo, 100 mg/kg, 312 h.
Data set [35] is described as follows: Insulin levels in ob/ob mice after 13 days of oral dose at 10 mpk b.i.d. To be noted: mouse, in vivo, 10 mg/kg, 312 h. Format: ADME.
Data set [36] can be described thus: Free fatty acid (FFA) levels in ob/ob mice after 13 days of oral dose at 10 mpk b.i.d. Format: ADME. To be noted: mouse, in vivo, 10 mg/kg, 312 h.
Data set [37] in a line: Glucose levels in ob/ob mice after 13 days of oral dose at 10 mpk b.i.d. To be noted: mouse, in vivo, 10 mg/kg, 312 h. It counts as ADME.
The species entered for data set [38] is Mus musculus. Put plainly: Final weight of the ob/ob mice after 13 days of oral treatment at 100 mpk b.i.d. Format: functional.
Data set [39] can be described thus: Aspartate aminotransferase (AST) levels in ob/ob mice after 13 days of oral dose at 100 mpk b.i.d. It counts as ADME. As to conditions: mouse, in vivo, 100 mg/kg, 312 h.
Data set [40] is filed under the species Mus musculus. The data set is described as follows: Initial weight of the ob/ob mice before oral treatment at 10 mpk b.i.d. for 13 days. Format: functional.
The nature of data set [41]: Glucose levels in ob/ob mice after 13 days of oral dose at 100 mpk b.i.d. Format: ADME. As to conditions: mouse, in vivo, 100 mg/kg, 312 h.
Data set [42] in a line: Alanine aminotransferase (ALT) levels in ob/ob mice after 13 days of oral dose at 10 mpk b.i.d. Format: ADME. As to conditions: mouse, in vivo, 10 mg/kg, 312 h.
For data set [43], the species on record is Mus musculus. The data set is described as follows: Final weight of the ob/ob mice after 13 days of oral treatment at 10 mpk b.i.d. Format: functional.
A short description of data set [44]: Clearance of the compound in rat after 5 mg/kg iv dose was determined. To be noted: in vivo.
Data set [45] in a line: Aspartate aminotransferase (AST) levels in ob/ob mice after 13 days of oral dose at 10 mpk b.i.d. Format: ADME. As to conditions: mouse, in vivo, 10 mg/kg, 312 h.

Where “and” joins values, the source holds several entries; their conditions need not be identical. Identical values can stand only once.

In the case of `Cc1c(NS(C)(=O)=O)cccc1N(Cc1ccc(Oc2ccc(F)c(OCC(=O)O)c2)cc1)Cc1ccc(F)cc1F`, the Level in [1] worked out at 3140 µg/mL; in data set [2], 1630 µg/mL; in data set [3] it was 2250 µg/mL; in data set [4], 0.99 mequiv/L; in data set [5], 1340 µg/mL; in data set [6], 0.0328 µg/mL. Also, the Level was 1.7 nmol ofpHB/min/mgof protein in [7]; 0.025 µg/mL in [9]; 7.7% in data set [10]; 2330 µg/mL in [12]; 2.4 nmol ofpHB/min/mgof protein in [15]; 8.9% in [16]. In addition, the Level in [19] turned out to be 1.01 mequiv/L; in data set [20] it was 54.6 mg/g; in data set [22], 395 units/mL; in data set [23] it was 1.27 mequiv/L; in data set [24], 2390 µg/mL; in data set [25], 0.99 mequiv/L. Moreover, the Level came to 2660 µg/mL in [26], 303 units/mL in data set [27], 2140 µg/mL in [28] and 44.2 mg/g in data set [31]. Also, the figures for the Weight in the data set listed under Mus musculus [8], in the data set filed under Mus musculus [14] and in the data set filed under Mus musculus [30] were 49.2 g, 46.9 g and 40 g, respectively. The figures for the fraction unbound in data set [11], in data set [18] and in data set [29] were 0.001, 0.001 and 0.003, respectively. In addition, the AUC in [13] was found to be 3850 ng·h/mL. The bioavailability in data set [17] came out at 40%. For the same compound, in data set [21], the concentration at 312 h is 20000 ng/g.

As for `Cc1c(NS(C)(=O)=O)cccc1N(Cc1ccccc1)Cc1ccc(Oc2ccc(OCC(=O)O)cc2)cc1`, the Weight in the data set listed under Mus musculus [32] turned out to be 46 g; in the data set listed under Mus musculus [38], 46.6 g; in the data set listed under Mus musculus [40], 45.4 g; in the data set filed under Mus musculus [43], 49.3 g. In addition, the concentration at 312 h in data set [33] worked out at 1.6 µg/mL. The Level worked out at 1 mequiv/L in [34]; 0.02 µg/mL in data set [35]; 1.3 mequiv/L in [36]; 3330 µg/mL in data set [37]; 330 units/mL in data set [39]; 2900 µg/mL in data set [41]. For the same compound, the Level in [42] is 786 units/mL and 282 units/mL; in data set [45], 420 units/mL. This compound showed a Clearance in data set [44] of 233 mL/min/kg.

The values above are taken from ChEMBL document CHEMBL1141148, “Antidiabetic activity of passive nonsteroidal glucocorticoid receptor modulators” (J Med Chem, 2005).
